Patent publication US9373800B2, “Organic light emitting element having lithium—boron complex” (CANON KABUSHIKI KAISHA, priority 2014, dated 2016)

Experiment: Evaluation of stability to water (100 nm deposited film, water dropped, thickness step height meter)
Type: physicochemical
Conditions: for State of the film after water was dropped, After 1 min / State of the film after water was dropped, After 10 min: 100 nm film deposited on glass substrate, water dropped onto film, Alpha-Step; for State of the film after water was dropped, After 1 min: after 1 minute; for Dissolution of the film in water (text summary of Table 1): film soaked in water
Method: Water was dropped onto the films, and the states of the films were examined after 1 minute and 10 minutes with a thickness step height meter (Alpha-Step).

For [F-].[Li+] [Comparative compound 1, lithium fluoride], the “State of the film after water was dropped, After 1 min” value (“State of the film … After 1 min” below) was “Dissolved”, the “State of the film after water was dropped, After 10 min” value (“State of the film … After 10 min” for short) was “Dissolved” and the “Dissolution of the film in water (text summary of Table 1)” value (shortened to “Dissolution of the film in water”) was “dissolved immediately”.
With [Li+].c1cnn([B-](n2cccn2)(n2cccn2)n2cccn2)c1 [Comparative compound 3] the “State of the film … After 1 min” value was “Partially dissolved”, the “State of the film … After 10 min” value was “Dissolved” and the “Dissolution of the film in water” value was “gradually dissolved”.
With [Cs+].[F-] [Comparative compound 2, cesium fluoride] the “State of the film … After 1 min” value was “Dissolved”, the “State of the film … After 10 min” value was “Dissolved” and the “Dissolution of the film in water” value was “dissolved immediately”.
